From the kinase profiling compilation of Christmann-Franck et al. (2016)

Experiments:
Assay in all cases: radiometric filter-binding kinase assay
[1] = molecular target: MAPK1 (human) (UniProt P28482); conditions: compound 10.0 µM
[2] = molecular target: MAPK3 (human) (UniProt P27361)
[3] = molecular target: MARK3 (human) (UniProt P27448)
[4] = molecular target: MARK4 (human) (UniProt Q96L34)
[5] = molecular target: MST4 (human) (UniProt Q9P289)
[6] = molecular target: NTRK1 (human) (UniProt P04629)
[7] = molecular target: NUAK1 (human) (UniProt O60285)
[8] = molecular target: PAK6 (human) (UniProt Q9NQU5)
[9] = molecular target: PLK1 (human) (UniProt P53350)
[10] = molecular target: PRKCA (human) (UniProt P17252)
[11] = molecular target: PRKCZ (human) (UniProt Q05513)
[12] = molecular target: RPS6KA1 KD1 KD2 (human) (UniProt Q15418)
[13] = molecular target: RPS6KA3 KD1 KD2 (human) (UniProt P51812)
[14] = molecular target: RPS6KA5 KD1 KD2 (human) (UniProt O75582)
[15] = test system: SGK1 (human), O00141 [S422D]
[16] = molecular target: SRC (human) (UniProt P12931)
[17] = molecular target: STK3 (human) (UniProt Q13188)
[18] = molecular target: TAOK1 (human) (UniProt Q7L7X3)

Chain of PLK1 (human) (P53350 whole entry, looked up): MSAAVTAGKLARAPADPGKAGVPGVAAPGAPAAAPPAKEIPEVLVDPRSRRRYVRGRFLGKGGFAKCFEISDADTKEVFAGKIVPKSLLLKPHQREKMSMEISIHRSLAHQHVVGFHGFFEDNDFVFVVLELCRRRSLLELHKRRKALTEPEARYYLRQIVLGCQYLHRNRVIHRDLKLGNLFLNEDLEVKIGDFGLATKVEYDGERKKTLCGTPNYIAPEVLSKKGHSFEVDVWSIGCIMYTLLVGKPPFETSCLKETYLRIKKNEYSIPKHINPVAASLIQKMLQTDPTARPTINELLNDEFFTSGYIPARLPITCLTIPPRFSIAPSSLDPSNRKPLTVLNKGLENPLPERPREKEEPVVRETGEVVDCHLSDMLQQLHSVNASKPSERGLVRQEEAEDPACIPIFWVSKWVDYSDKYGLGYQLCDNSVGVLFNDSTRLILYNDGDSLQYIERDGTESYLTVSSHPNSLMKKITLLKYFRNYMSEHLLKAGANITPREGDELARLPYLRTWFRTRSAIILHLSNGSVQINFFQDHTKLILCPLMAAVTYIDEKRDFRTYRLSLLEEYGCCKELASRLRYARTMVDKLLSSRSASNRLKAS
Chain of MAPK3 (human) (P27361 whole entry, looked up): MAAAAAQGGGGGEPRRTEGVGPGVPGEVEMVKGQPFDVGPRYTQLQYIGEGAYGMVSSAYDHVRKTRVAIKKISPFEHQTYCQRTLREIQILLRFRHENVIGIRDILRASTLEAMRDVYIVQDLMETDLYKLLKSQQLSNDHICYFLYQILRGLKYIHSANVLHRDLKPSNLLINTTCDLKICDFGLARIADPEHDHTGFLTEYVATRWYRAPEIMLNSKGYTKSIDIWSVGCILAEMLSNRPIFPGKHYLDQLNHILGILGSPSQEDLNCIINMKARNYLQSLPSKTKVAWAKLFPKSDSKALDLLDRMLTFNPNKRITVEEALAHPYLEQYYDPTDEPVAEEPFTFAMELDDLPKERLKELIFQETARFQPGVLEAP
Chain of RPS6KA3 KD1 KD2 (human) (P51812 whole entry, looked up): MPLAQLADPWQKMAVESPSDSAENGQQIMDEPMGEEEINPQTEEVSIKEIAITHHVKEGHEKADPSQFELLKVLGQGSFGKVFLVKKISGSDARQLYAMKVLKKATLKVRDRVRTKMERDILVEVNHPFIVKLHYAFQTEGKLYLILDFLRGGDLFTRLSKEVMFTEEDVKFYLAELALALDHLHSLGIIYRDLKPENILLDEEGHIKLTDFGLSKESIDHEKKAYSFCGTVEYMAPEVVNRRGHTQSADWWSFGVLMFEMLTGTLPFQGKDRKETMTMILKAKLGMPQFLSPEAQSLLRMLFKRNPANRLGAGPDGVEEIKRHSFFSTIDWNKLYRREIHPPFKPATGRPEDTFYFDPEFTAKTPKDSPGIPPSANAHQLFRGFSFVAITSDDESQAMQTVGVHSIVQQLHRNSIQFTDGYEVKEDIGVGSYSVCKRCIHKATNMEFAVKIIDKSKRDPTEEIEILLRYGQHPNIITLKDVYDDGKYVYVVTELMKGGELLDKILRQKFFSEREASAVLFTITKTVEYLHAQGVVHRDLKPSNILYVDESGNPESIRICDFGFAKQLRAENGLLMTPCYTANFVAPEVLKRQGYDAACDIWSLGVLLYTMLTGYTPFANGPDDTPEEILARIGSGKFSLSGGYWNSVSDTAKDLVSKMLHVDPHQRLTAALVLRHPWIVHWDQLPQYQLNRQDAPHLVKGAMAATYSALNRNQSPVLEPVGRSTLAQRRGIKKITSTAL
Chain of PAK6 (human) (Q9NQU5 whole entry, looked up): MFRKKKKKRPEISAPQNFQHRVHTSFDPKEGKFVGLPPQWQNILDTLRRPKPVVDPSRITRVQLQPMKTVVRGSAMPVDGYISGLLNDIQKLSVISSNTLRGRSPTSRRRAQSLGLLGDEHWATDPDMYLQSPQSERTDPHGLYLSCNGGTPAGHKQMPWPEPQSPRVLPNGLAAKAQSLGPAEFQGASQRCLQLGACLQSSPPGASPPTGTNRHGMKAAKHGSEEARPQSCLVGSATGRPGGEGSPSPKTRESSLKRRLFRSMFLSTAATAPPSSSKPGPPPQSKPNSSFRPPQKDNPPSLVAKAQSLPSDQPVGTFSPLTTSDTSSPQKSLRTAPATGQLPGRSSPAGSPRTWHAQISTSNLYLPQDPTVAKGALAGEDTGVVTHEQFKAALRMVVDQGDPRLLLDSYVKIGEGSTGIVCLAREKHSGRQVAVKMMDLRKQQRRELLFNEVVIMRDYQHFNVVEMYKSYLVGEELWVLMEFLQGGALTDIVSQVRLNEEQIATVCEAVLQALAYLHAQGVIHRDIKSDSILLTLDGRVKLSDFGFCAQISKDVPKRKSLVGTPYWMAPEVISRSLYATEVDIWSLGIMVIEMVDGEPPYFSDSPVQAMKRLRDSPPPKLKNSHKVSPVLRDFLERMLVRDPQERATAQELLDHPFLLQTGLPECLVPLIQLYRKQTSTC
Chain of RPS6KA1 KD1 KD2 (human) (Q15418 whole entry, looked up): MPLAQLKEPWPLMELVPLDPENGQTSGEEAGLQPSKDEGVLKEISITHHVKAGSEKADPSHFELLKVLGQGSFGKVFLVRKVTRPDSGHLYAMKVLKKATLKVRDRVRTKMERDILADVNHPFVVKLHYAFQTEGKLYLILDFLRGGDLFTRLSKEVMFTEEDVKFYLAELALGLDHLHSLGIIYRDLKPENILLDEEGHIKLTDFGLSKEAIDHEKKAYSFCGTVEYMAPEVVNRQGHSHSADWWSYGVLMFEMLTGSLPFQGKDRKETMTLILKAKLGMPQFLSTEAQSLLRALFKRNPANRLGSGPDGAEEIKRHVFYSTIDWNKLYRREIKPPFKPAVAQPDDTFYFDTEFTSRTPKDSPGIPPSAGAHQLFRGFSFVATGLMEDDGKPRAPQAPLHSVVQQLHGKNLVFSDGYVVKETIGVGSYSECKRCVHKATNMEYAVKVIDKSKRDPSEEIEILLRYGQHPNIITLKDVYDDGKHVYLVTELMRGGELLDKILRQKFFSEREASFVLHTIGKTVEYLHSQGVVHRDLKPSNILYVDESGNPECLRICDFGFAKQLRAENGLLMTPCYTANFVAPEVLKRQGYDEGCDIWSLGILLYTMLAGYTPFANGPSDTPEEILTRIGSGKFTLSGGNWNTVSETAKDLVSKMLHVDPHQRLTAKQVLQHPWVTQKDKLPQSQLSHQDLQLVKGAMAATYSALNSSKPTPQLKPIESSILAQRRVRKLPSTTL
Chain of NUAK1 (human) (O60285 whole entry, looked up): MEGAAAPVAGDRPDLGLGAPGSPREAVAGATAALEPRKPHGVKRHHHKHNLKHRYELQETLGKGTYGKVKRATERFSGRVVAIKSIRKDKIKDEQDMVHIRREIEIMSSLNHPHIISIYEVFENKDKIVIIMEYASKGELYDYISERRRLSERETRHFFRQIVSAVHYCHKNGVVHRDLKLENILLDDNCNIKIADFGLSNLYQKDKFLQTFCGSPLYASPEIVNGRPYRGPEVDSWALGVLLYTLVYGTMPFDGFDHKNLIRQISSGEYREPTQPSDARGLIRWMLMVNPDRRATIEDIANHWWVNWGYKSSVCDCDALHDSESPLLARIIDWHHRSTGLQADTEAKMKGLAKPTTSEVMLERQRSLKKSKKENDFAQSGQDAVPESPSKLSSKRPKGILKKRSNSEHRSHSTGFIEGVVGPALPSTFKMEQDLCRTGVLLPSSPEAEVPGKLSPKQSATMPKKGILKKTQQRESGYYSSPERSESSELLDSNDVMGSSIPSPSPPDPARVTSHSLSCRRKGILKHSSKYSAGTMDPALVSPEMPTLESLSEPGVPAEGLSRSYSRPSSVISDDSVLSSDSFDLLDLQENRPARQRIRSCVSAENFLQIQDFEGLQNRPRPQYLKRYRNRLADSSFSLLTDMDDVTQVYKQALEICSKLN
Chain of PRKCZ (human) (Q05513 whole entry, looked up): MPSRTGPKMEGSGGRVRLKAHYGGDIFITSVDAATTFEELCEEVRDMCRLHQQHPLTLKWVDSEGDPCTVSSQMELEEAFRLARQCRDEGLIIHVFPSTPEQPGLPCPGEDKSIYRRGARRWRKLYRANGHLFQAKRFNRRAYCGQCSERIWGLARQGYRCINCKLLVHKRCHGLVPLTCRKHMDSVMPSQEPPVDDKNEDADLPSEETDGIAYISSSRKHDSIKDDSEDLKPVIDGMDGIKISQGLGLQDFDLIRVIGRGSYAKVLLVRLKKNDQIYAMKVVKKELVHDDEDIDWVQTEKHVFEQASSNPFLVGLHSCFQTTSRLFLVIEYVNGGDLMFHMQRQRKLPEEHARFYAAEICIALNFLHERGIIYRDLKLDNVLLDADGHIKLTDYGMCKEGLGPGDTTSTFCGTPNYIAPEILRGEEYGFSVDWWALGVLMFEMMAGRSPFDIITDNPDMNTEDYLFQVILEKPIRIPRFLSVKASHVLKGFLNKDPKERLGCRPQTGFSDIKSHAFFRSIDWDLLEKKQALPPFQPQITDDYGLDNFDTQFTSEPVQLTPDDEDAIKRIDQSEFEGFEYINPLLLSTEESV
Chain of STK3 (human) (Q13188 whole entry, looked up): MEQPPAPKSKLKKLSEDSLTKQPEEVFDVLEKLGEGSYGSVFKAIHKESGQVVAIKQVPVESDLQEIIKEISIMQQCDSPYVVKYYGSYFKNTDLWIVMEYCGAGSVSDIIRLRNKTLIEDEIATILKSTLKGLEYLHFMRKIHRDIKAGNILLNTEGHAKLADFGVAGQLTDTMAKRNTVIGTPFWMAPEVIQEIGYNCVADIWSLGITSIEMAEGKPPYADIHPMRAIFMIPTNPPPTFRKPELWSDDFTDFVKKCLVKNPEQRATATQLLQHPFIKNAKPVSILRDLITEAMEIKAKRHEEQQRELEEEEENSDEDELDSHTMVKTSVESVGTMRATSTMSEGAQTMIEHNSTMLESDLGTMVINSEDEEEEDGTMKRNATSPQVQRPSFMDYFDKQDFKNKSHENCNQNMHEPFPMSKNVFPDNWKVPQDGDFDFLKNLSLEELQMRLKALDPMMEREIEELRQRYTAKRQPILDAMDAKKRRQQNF

Structure (SMILES): CC1=C(CO)C(=O)O[C@@H]([C@@H](C)[C@H]2CC[C@H]3[C@@H]4C[C@H]5O[C@]56[C@@H](O)C=CC(=O)[C@]6(C)C4CC[C@]23C)C1 (some centres undefined)
- residual activity [1]: 111%
- residual activity ([2]; compound 0.1 µM): 99%
- residual activity ([2]; compound 1.0 µM): 100%
- residual activity ([2]; compound 10.0 µM): 109%
- residual activity ([3]; compound 0.1 µM): 99%
- residual activity ([3]; compound 1.0 µM): 114%
- residual activity ([3]; compound 10.0 µM): 118%
- residual activity ([4]; compound 0.1 µM): 87%
- residual activity ([4]; compound 1.0 µM): 97%
- residual activity ([4]; compound 10.0 µM): 77%
- residual activity ([5]; compound 0.1 µM): 97%
- residual activity ([5]; compound 1.0 µM): 95%
- residual activity ([6]; compound 0.1 µM): 92%
- residual activity ([6]; compound 1.0 µM): 110%
- residual activity ([6]; compound 10.0 µM): 97%
- residual activity ([7]; compound 0.1 µM): 112%
- residual activity ([7]; compound 1.0 µM): 121%
- residual activity ([7]; compound 10.0 µM): 110%
- residual activity ([8]; compound 0.1 µM): 125%
- residual activity ([8]; compound 1.0 µM): 126%
- residual activity ([8]; compound 10.0 µM): 105%
- residual activity ([9]; compound 0.1 µM): 105%
- residual activity ([9]; compound 1.0 µM): 101%
- residual activity ([9]; compound 10.0 µM): 118%
- residual activity ([10]; compound 0.1 µM): 96%
- residual activity ([10]; compound 1.0 µM): 111%
- residual activity ([10]; compound 10.0 µM): 96%
- residual activity ([11]; compound 0.1 µM): 103%
- residual activity ([11]; compound 1.0 µM): 110%
- residual activity ([11]; compound 10.0 µM): 101%
- residual activity ([12]; compound 0.1 µM): 109%
- residual activity ([12]; compound 1.0 µM): 101%
- residual activity ([12]; compound 10.0 µM): 105%
- residual activity ([13]; compound 0.1 µM): 114%
- residual activity ([13]; compound 1.0 µM): 98%
- residual activity ([13]; compound 10.0 µM): 74%
- residual activity ([14]; compound 0.1 µM): 104%
- residual activity ([14]; compound 1.0 µM): 101%
- residual activity ([14]; compound 10.0 µM): 99%
- residual activity ([15]; compound 0.1 µM): 110%
- residual activity ([15]; compound 10.0 µM): 103%
- residual activity ([16]; compound 0.1 µM): 114%
- residual activity ([16]; compound 1.0 µM): 113%
- residual activity ([17]; compound 0.1 µM): 123%
- residual activity ([17]; compound 1.0 µM): 126%
- residual activity ([17]; compound 10.0 µM): 129%
- residual activity ([18]; compound 0.1 µM): 103%
- residual activity ([18]; compound 1.0 µM): 113%
- residual activity ([18]; compound 10.0 µM): 120%
